Test results as given in PMC6909574, “The in vivo impact of MsLAC1, a Miscanthus laccase isoform, on lignification and lignin composition contrasts with its in vitro substrate preference” (BMC Plant Biology, 2019).

Biological target: T1, MsLAC1 (Miscanthus sinensis, UniProt A0A5B8YT74)
T1 construct: recombinant, secreted from Pichia pastoris X33 (pPICZalphaA, alpha-factor, MYC and HIS tags)
T1 sequence (A0A5B8YT74 32-583): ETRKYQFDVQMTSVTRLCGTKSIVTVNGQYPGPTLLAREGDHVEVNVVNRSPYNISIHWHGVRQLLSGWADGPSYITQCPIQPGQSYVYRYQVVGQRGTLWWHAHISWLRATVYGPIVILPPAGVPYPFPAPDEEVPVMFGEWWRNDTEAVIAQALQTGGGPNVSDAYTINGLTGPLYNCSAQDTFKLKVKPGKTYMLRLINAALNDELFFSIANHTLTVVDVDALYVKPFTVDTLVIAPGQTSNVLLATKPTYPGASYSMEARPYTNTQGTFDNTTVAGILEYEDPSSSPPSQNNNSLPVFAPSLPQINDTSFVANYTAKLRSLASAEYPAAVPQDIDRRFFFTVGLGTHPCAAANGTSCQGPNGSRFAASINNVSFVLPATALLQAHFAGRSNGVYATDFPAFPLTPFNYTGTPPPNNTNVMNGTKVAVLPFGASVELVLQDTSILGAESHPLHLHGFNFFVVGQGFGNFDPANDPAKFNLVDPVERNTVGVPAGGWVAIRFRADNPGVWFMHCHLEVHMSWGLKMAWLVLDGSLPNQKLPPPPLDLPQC
Test: UV-Vis spectra over time ([…]-650 nm)
Type: biochemical
Settings: 0.5 mM substrate, 0.02 U enzyme, 50 mM sodium acetate pH 5.0, 30 °C

## COc1cc(/C=C/CO)ccc1O [coniferyl alcohol]
  UV-Vis spectra over time (250-650 nm): recombinant MsLAC1 enzyme was able to oxidize all supplemented monolignols
